Measured values from patent US12215112B2, “CD151 inhibitors” (ESFAM BIOTECH PTY LTD, priority 2020, dated 2025).

tested on: PC3 cells; experiment: xCELLigence RTCA real-time cell invasion assay (CIM plate, Matrigel) on PC3 prostate cancer cells; type: cell-based; settings: Homo sapiens, PC-3, compound 25 uM to 1 uM, cell index monitored for 72 hours, four-parameter dose-response curve, read-out: IC50, Effect of compounds on the invention on prostate cancer cells
Procedure: The media antibiotics and serum were purchased from Invitrogen (Life Technologies). PC3 cells were purchased from ATCC (Granville, NSW, Australia). PC3 cells were expanded in cell culture T75 flasks with vented cap and then preserved in low passage number. The medium used for PC3 cells was RPMI (GlutaMAX) supplemented with 10% FCS and 1% penicillin/streptomycin (culture media). The cells were maintained at 37° C. in a humidified 95% (v/v) air/5% (v/v) CO2 environment and were grown up to 80% confluence.
XCELLigence® real-time cell analysis (RTCA) instrument (ACEA Biosciences), 16-well ACEA CIM-Plates, 16-well ACEA E-Plat and assembly tool were purchased from ELITechGroup empowering IVD (Braeside, Australia). The Matrigel was purchased from Corning (Australia).
To measure cell invasion under compound treatment the upper chamber of the CIM plate was coated with 5% Matrigel diluted in SF RPMI (20 μl) and incubated in a 37° C. tissue culture incubator for four hours. Using the assembly tool to support the chambers the lower chamber was filled with (160 μl) of culture media containing the compound in specific concertation from 25 uM to 1 uM and two controls (DMSO 0.1% and ESFAM 4C 10 uM) (see the schematic in FIG. 1). Once the upper chamber was placed on the top of the lower chamber it was loaded with (40 μl) serum-free (SF) RPMI containing the compound as previously stated. After one hour calibration in 37° C., plates were placed into the xCELLigence station, and the base-line electric impedance was measured to confirm that all wells and connections were working properly. In case of connection problem, the software automatically informs the researcher about the nature of the problem in the message section. Subsequently cells were trypsinized and upon harvesting and counting they were diluted in SF RPMI to desired density (3×10^4) and seeded (100 μl) in the wells. After 30 minutes of incubation in room-temperature to allow cell attachment the plates were loaded in the xCELLigence RTCA DP machine. The cell invasion was monitored in real-time for the duration of 72 hours. […]
The xCELLigence system automatically monitored the electrical impedance value of each well and expressed as a cell index (CI) value for the duration of 72 hours. The data for treatments was automatically grouped as the mean±standard deviation. The software version used in these experiments is 1.2.1. The electronic record of the experimental data is automatically saved in file that cannot be altered or changed by the researcher.
Statistical analysis was performed using Microsoft® Office EXCEL and GraphPad Prism 7. The IC50 was calculated from the four-parameter dose-response curve (log(inhibitor) vs. response-variable slopes). Where the row-data was inserted in GraphPad Prism 7 (Dose response x-log(dose)) and analysed for XY nonlinear regression (curve fit), dose response-inhibition, log(inhibitor) vs response variable slope (four parameters). For the IC90 calculation the log(IC50)=log(IC90)-(1/HillSlope)*log(9) equation was used in EXCEL based on the raw data extracted from xCELLigence system and the dose-response curve.

In order of rising IC50:
1. COc1ccc(F)c(NC(=O)c2nn3c(-c4cn[nH]c4)cc(N4Cc5ccc(F)cc5C4)nc3c2C(C)C)c1 [Compound 124, N-(2-fluoro-5-methoxyphenyl)-5-(5-fluoroisoindolin-2-yl)-3-isopropyl-7-(1H-pyrazol-4-yl)pyrazolo[1,5-a]pyrimidine-2-carboxamide]  1.15 µM
2. COc1cccc(NC(=O)c2cc3nc(N(C)[C@@H](C)c4ccccc4)cc(-c4cn[nH]c4)n3n2)c1 [Compound 14, (S)—N-(3-methoxyphenyl)-5-(methyl(1-phenylethyl)amino)-7-(1H-pyrazol-4-yl)pyrazolo[1,5-a]pyrimidine-2-carboxamide]  1.96 µM
3. CC(C)c1c(C(=O)Nc2ccc(N3CCOCC3)cc2)nn2c(-c3cn[nH]c3)cc(N3Cc4ccc(F)cc4C3)nc12 [Compound 106, 5-(5-fluoroisoindolin-2-yl)-3-isopropyl-N-(4-morpholinophenyl)-7-(1H-pyrazol-4-yl)pyrazolo[1,5-a]pyrimidine-2-carboxamide]  2.02 µM
4. CC(C)Oc1cccc(NC(=O)c2cc3nc(N4Cc5ccccc5C4)cc(-c4cn[nH]c4)n3n2)c1 [Compound 28, 5-(isoindolin-2-yl)-N-(3-isopropoxyphenyl)-7-(1H-pyrazol-4-yl)pyrazolo[1,5-a]pyrimidine-2-carboxamide]  2.03 µM
5. CC(=O)N1CCN(c2cccc(NC(=O)c3nn4c(-c5cn[nH]c5)cc(N5Cc6ccccc6C5)nc4c3C3CC3)c2)CC1 [Compound 95, N-(3-(4-acetylpiperazin-1-yl)phenyl)-3-cyclopropyl-5-(isoindolin-2-yl)-7-(1H-pyrazol-4-yl)pyrazolo[1,5-a]pyrimidine-2-carboxamide]  2.12 µM
6. CN(Cc1ccccc1)c1cc(-c2cn[nH]c2)n2nc(C(=O)Nc3ccccc3Cl)cc2n1 [Compound 31, 5-(benzyl(methyl)amino)-N-(2-chlorophenyl)-7-(1H-pyrazol-4-yl)pyrazolo[1,5-a]pyrimidine-2-carboxamide]  2.21 µM
7. CC(C)c1c(C(=O)Nc2cccc(O)c2)nn2c(-c3cn[nH]c3)cc(N3Cc4ccc(Cl)cc4C3)nc12 [Compound 100, 5-(5-chloroisoindolin-2-yl)-N-(3-hydroxyphenyl)-3-isopropyl-7-(1H-pyrazol-4-yl)pyrazolo[1,5-a]pyrimidine-2-carboxamide]  2.23 µM
8. COc1cc(NC(=O)c2cc3nc(N4Cc5ccccc5C4)cc(-c4cn[nH]c4)n3n2)ccc1Cl [Compound 53, N-(4-chloro-3-methoxyphenyl)-5-(isoindolin-2-yl)-7-(1H-pyrazol-4-yl)pyrazolo[1,5-a]pyrimidine-2-carboxamide]  2.76 µM
9. O=C(Nc1ccccc1)c1cc2nc(N3Cc4ccccc4C3)cc(-c3cn[nH]c3)n2n1 [Compound 23, 5-(isoindolin-2-yl)-N-phenyl-7-(1H-pyrazol-4-yl)pyrazolo[1,5-a]pyrimidine-2-carboxamide]  2.83 µM
10. CC(=O)Nc1cccc(NC(=O)c2nn3c(-c4cn[nH]c4)cc(N4Cc5ccc(F)cc5C4)nc3c2C(C)C)c1 [Compound 78, N-(3-acetamidophenyl)-5-(5-fluoroisoindolin-2-yl)-3-isopropyl-7-(1H-pyrazol-4-yl)pyrazolo[1,5-a]pyrimidine-2-carboxamide]  3.03 µM
11. CN(Cc1ccccc1)c1cc(-c2cn[nH]c2)n2nc(C(=O)Nc3ccc(C(F)(F)F)cc3)cc2n1 [Compound 32, 5-(benzyl(methyl)amino)-7-(1H-pyrazol-4-yl)-N-(4-(trifluoromethyl)phenyl)pyrazolo[1,5-a]pyrimidine-2-carboxamide]  3.04 µM
12. Cc1noc(C)c1NC(=O)c1cc2nc(N(C)Cc3ccccc3)cc(-c3cn[nH]c3)n2n1 [Compound 10, 5-(benzyl(methyl)amino)-N-(3,5-dimethylisoxazol-4-yl)-7-(1H-pyrazol-4-yl)pyrazolo[1,5-a]pyrimidine-2-carboxamide]  3.71 µM
13. CC(=O)N1CCN(c2cccc(NC(=O)c3nn4c(-c5cn[nH]c5)cc(N5Cc6ccc(F)cc6C5)nc4c3C(C)C)c2)CC1 [Compound 79, N-(3-(4-acetylpiperazin-1-yl)phenyl)-5-(5-fluoroisoindolin-2-yl)-3-isopropyl-7-(1H-pyrazol-4-yl)pyrazolo[1,5-a]pyrimidine-2-carboxamide]  4.05 µM
14. CC(C)c1c(C(=O)Nc2cccc(OC(F)(F)F)c2)nn2c(-c3cn[nH]c3)cc(N3Cc4ccccc4C3)nc12 [Compound 73, 5-(isoindolin-2-yl)-3-isopropyl-7-(1H-pyrazol-4-yl)-N-(3-(trifluoromethoxy)phenyl)pyrazolo[1,5-a]pyrimidine-2-carboxamide]  4.91 µM
15. CN(Cc1ccccc1C(F)(F)F)c1cc(-c2cn[nH]c2)n2nc(C(=O)Nc3ccc(Cl)cc3)cc2n1 [Compound 43, N-(4-chlorophenyl)-5-(methyl(2-(trifluoromethyl)benzyl)amino)-7-(1H-pyrazol-4-yl)pyrazolo[1,5-a]pyrimidine-2-carboxamide]  6.09 µM
16. O=C(Nc1cccc(N2CCOCC2)c1)c1cc2nc(N3Cc4ccccc4C3)cc(-c3cn[nH]c3)n2n1 [Compound 47, 5-(isoindolin-2-yl)-N-(3-morpholinophenyl)-7-(1H-pyrazol-4-yl)pyrazolo[1,5-a]pyrimidine-2-carboxamide]  6.18 µM
17. COc1ccc(NC(=O)c2nn3c(-c4cn[nH]c4)cc(N4Cc5ccccc5C4)nc3c2C2CC2)cc1 [Compound 96, 3-cyclopropyl-5-(isoindolin-2-yl)-N-(4-methoxyphenyl)-7-(1H-pyrazol-4-yl)pyrazolo[1,5-a]pyrimidine-2-carboxamide]  6.47 µM
18. CC(C)(C)c1c(C(=O)Nc2cccc(O)c2)nn2c(-c3cn[nH]c3)cc(N3Cc4ccccc4C3)nc12 [Cmpd 85]  6.51 µM
19. CN(Cc1ccccc1)c1cc(-c2cn[nH]c2)n2nc(C(=O)Nc3ccccc3C(F)(F)F)cc2n1 [Compound 34, 5-(benzyl(methyl)amino)-7-(1H-pyrazol-4-yl)-N-(2-(trifluoromethyl)phenyl)pyrazolo[1,5-a]pyrimidine-2-carboxamide]  8.97 µM
20. COc1cccc(NC(=O)c2nn3c(-c4cn[nH]c4)cc(N4Cc5ccc(F)cc5C4)nc3c2C(C)C)c1 [Compound 77, 5-(5-fluoroisoindolin-2-yl)-3-isopropyl-N-(3-methoxyphenyl)-7-(1H-pyrazol-4-yl)pyrazolo[1,5-a]pyrimidine-2-carboxamide]  11 µM
21. CN(Cc1ccc(Cl)cc1)c1cc(-c2cn[nH]c2)n2nc(C(=O)Nc3ccc(Cl)cc3)cc2n1 [Compound 44, 5-((4-chlorobenzyl)(methyl)amino)-N-(4-chlorophenyl)-7-(1H-pyrazol-4-yl)pyrazolo[1,5-a]pyrimidine-2-carboxamide]  12.2 µM
22. CC(C)c1c(C(=O)Nc2cccc(N3CCOCC3)c2)nn2c(-c3cn[nH]c3)cc(N3Cc4ccc(Cl)cc4C3)nc12 [Compound 108, 5-(5-chloroisoindolin-2-yl)-3-isopropyl-N-(3-morpholinophenyl)-7-(1H-pyrazol-4-yl)pyrazolo[1,5-a]pyrimidine-2-carboxamide]  18.7 µM
23. COc1cccc(NC(=O)c2nn3c(-c4cn[nH]c4)cc(N4Cc5ccccc5C4)nc3c2C)c1 [Compound 66, 5-(isoindolin-2-yl)-N-(3-methoxyphenyl)-3-methyl-7-(1H-pyrazol-4-yl)pyrazolo[1,5-a]pyrimidine-2-carboxamide]  19.7 µM
